Laboratory results taken from patent US7563805B2, “Tri-, tetra-substituted-3-aminopyrrolidine derivative” (Daiichi Pharmaceutical Co., Ltd., priority 2005, dated 2009).
Converted amounts (≈) assume the structure as drawn. Marks after values point to notes of the source that are not given here.

Experiments:
[1] = system: S. aureus, 87037 (LVFX-resistant MRSA); experiment: antibacterial activity (MIC), standard method of Japanese Society of Chemotherapy; conditions: Staphylococcus aureus, MRSA, S. aureus, 87037 (LVFX-resistant MRSA)
[2] = system: S. epidermidis, 56500; experiment: as above; conditions: Staphylococcus epidermidis, 56500, S. epidermidis
[3] = system: E. faecalis, ATCC 19433; experiment: antibacterial activity (MIC), standard method of Japanese Society of Chemotherapy; conditions: Enterococcus faecalis, ATCC19433, E. faecalis
[4] = system: S. pneumoniae, J24 (penicillin-intermediate resistant bacteria); experiment: as above; conditions: Streptococcus pneumoniae
[5] = system: P. aeruginosa, 32104; experiment: as above; conditions: Pseudomonas aeruginosa
[6] = system: S. aureus, 209P; experiment: as above; conditions: Staphylococcus aureus
[7] = system: S. marscecens, 10100; experiment: as above
[8] = system: P. aeruginosa, 32121; experiment: as above; conditions: Pseudomonas aeruginosa
[9] = system: E. coli NIHJ; experiment: as above; conditions: Escherichia coli
[10] = system: P. vulgaris, 08601; experiment: as above; conditions: Proteus vulgaris, 08601, P. vulgaris
[11] = molecular target: hERG K+ channel (Homo sapiens, UniProt Q12809); experiment: hERG-K^+ channel blocking effect
[12] = potential convulsant activity upon intracisternal administration, with and without 4-biphenyl acetic acid (BPAA); conditions: 5 μg/5 μL/mouse i. cist
Experimental: The potential convulsant activity upon intracisternal administration to mouse was also evaluated for the concomitant and administration with 4-biphenyl acetic acid (BPAA: an active metabolite of fenbufen) and in the absence of such concomitant administration. The evaluation was conducted by using 4 week old male Slc:ddY mice (6 animals per group) and intracisternally administering the test substance at a dose of 5 μg/5 μL/mouse (solvent, 0.5% lactic acid). Monitoring of the animals for the convulsion and death was started immediately after the administration and continued to 30 minutes after the administration. When used concomitantly with the BPAA, BPAA was suspended in 5% CMC, and 400 mg/kg was orally administered at a solution amount of 10 mL/kg, and the test substance was intracisternally administered 30 minutes after the BPAA.

Chain of hERG K+ channel (Q12809 whole entry): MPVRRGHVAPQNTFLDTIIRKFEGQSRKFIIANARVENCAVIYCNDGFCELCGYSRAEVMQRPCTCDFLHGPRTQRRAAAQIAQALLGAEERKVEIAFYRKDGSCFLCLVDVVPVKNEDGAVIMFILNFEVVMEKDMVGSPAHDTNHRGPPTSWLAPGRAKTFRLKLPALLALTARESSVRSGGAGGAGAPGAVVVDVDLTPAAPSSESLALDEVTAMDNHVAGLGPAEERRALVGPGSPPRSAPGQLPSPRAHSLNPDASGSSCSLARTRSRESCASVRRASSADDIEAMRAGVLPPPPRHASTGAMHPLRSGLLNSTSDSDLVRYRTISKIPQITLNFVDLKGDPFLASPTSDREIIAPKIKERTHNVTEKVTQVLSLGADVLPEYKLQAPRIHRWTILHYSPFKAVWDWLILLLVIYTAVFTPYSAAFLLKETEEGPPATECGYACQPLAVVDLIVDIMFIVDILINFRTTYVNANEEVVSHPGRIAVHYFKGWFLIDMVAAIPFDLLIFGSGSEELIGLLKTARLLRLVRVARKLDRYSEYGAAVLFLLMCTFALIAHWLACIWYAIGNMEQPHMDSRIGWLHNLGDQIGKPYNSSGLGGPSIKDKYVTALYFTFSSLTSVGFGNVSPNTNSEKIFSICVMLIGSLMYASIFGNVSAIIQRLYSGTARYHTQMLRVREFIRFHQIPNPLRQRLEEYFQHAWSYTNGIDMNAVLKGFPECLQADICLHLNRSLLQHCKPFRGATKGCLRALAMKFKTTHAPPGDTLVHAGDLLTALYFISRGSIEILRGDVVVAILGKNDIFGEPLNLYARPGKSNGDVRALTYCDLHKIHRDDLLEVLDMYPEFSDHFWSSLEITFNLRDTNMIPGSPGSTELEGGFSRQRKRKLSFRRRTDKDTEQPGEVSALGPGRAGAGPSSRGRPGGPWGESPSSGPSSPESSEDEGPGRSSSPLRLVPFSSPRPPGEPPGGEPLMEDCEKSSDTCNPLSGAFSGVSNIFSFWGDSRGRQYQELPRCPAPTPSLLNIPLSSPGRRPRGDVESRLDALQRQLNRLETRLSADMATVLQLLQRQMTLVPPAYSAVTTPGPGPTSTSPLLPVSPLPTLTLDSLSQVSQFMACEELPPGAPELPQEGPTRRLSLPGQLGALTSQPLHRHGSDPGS

SMILES: C=C1CN(c2c(F)cc3c(=O)c(C(=O)O)cn([C@@H]4C[C@@H]4F)c3c2OC)C[C@]1(C)N [Example 17, 7-[(3R)-3-Amino-3-methyl-4-methylenepyrrolidine-1-yl]-6-fluoro-1-[(1R,2S)-2-fluorocyclopropyl]-8-methoxy-1,4-dihydro-4-oxoquinoline-3-carboxylic acid]
- MIC [1]: 0.39 µg/mL (≈ 0.962 µM)
- MIC [2]: 0.1 µg/mL (≈ 0.247 µM)
- melting point: 236 to 239 °C (dec.)
- MIC [3]: 0.2 µg/mL (≈ 0.493 µM)
- MIC [4]: 0.1 µg/mL (≈ 0.247 µM)
- MIC [5]: 0.39 µg/mL (≈ 0.962 µM)
- MIC [6]: 0.025 µg/mL (≈ 0.0617 µM)
- MIC [7]: 0.1 µg/mL (≈ 0.247 µM)
- MIC [8]: 0.1 µg/mL (≈ 0.247 µM)
- MIC [9]: 0.006 µg/mL (≈ 0.0148 µM)
- MIC [10]: 0.012 µg/mL (≈ 0.0296 µM)

SMILES: Cc1c(N2CC(F)[C@](C)(N)C2)c(F)cc2c(=O)c(C(=O)O)cn([C@@H]3C[C@@H]3F)c12 (single isomer, unassigned) [Example 27]
- MIC [1]: 0.39 µg/mL (≈ 0.986 µM)
- MIC [2]: 0.05 µg/mL (≈ 0.126 µM)
- melting point: 215 to 217 °C
- MIC [3]: 0.2 µg/mL (≈ 0.506 µM)
- inhibition at 30 µM [11]: -1.8 ± 6.8%
- inhibition at 100 µM [11]: 0.6 ± 8%
- inhibition at 300 µM [11]: 8.9 ± 11%
- MIC [4]: 0.1 µg/mL (≈ 0.253 µM)
- MIC [5]: 0.39 µg/mL (≈ 0.986 µM)
- MIC [6]: 0.012 µg/mL (≈ 0.0304 µM)
- MIC [7]: 0.1 µg/mL (≈ 0.253 µM)
- MIC [8]: 0.1 µg/mL (≈ 0.253 µM)
- MIC [9]: 0.006 µg/mL (≈ 0.0152 µM)
- MIC [10]: 0.006 µg/mL (≈ 0.0152 µM)

SMILES: COc1c(N2CC(CF)C(C)(N)C2)c(F)cc2c(=O)c(C(=O)O)cn([C@@H]3C[C@@H]3F)c12 (single isomer, unassigned) [Example 8, 7-[(3R*,4S*)-3-Amino-4-fluoromethyl-3-methylpyrrolidin-1-yl]-6-fluoro-1-[(1R,2S)-2-fluorocyclopropyl]-8-methoxy-1,4-dihydro-4-oxoguinoline-3-carboxylic acid]
- MIC [1]: 0.78 µg/mL (≈ 1.83 µM)
- MIC [2]: 0.1 µg/mL (≈ 0.235 µM)
- melting point: 186 to 189 °C
- MIC [3]: 0.2 µg/mL (≈ 0.47 µM)
- inhibition at 30 µM [11]: 1.5 ± 1.8%
- inhibition at 100 µM [11]: 2.1 ± 2.3%
- inhibition at 300 µM [11]: 2.3 ± 7.3%
- MIC [4]: 0.1 µg/mL (≈ 0.235 µM)
- MIC [5]: 0.78 µg/mL (≈ 1.83 µM)
- MIC [6]: 0.025 µg/mL (≈ 0.0588 µM)
- MIC [7]: 0.2 µg/mL (≈ 0.47 µM)
- MIC [8]: 0.2 µg/mL (≈ 0.47 µM)
- MIC [9]: 0.012 µg/mL (≈ 0.0282 µM)
- MIC [10]: 0.025 µg/mL (≈ 0.0588 µM)

SMILES: Cc1c(N2CC3(CC3)[C@](C)(N)C2)ccc2c(=O)c(C(=O)O)cn([C@@H]3C[C@@H]3F)c12 [Example 29, 7-[(7S)-7-Amino-7-methyl-5-azaspiro[2.4]heptan-5-yl]-1-[(1R,2S)-2-fluorocyclopropyl]-8-methyl-1,4-dihydro-4-oxoquinoline-3-carboxylic acid]
- MIC [1]: 3.13 µg/mL (≈ 8.12 µM)
- MIC [2]: 0.2 µg/mL (≈ 0.519 µM)
- melting point: 157 to 159 °C
- MIC [3]: 0.78 µg/mL (≈ 2.02 µM)
- MIC [4]: 0.39 µg/mL (≈ 1.01 µM)
- MIC [5]: 0.2 µg/mL (≈ 0.519 µM)
- MIC [6]: 0.05 µg/mL (≈ 0.13 µM)
- MIC [7]: 0.2 µg/mL (≈ 0.519 µM)
- MIC [8]: 0.1 µg/mL (≈ 0.259 µM)
- MIC [9]: 0.05 µg/mL (≈ 0.13 µM)
- MIC [10]: 0.025 µg/mL (≈ 0.0649 µM)

SMILES: Cc1c(N2CC3(CC3)[C@](C)(N)C2)ccc2c(=O)c(C(=O)O)cn(C3CC3)c12 [Example 30, 7-[(7S)-7-Amino-7-methyl-5-azaspiro[2.4]heptan-5-yl]-1-cyclopropyl-8-methyl-1,4-dihydro-4-oxoquinoline-3-carboxylic acid]
- MIC [1]: 1.56 µg/mL (≈ 4.25 µM)
- MIC [2]: 0.2 µg/mL (≈ 0.544 µM)
- melting point: 227 to 230 °C
- MIC [3]: 0.39 µg/mL (≈ 1.06 µM)
- MIC [4]: 0.2 µg/mL (≈ 0.544 µM)
- MIC [5]: 0.2 µg/mL (≈ 0.544 µM)
- MIC [6]: 0.05 µg/mL (≈ 0.136 µM)
- MIC [7]: 0.1 µg/mL (≈ 0.272 µM)
- MIC [8]: 0.05 µg/mL (≈ 0.136 µM)
- MIC [9]: 0.006 µg/mL (≈ 0.0163 µM)
- MIC [10]: 0.025 µg/mL (≈ 0.068 µM)

SMILES: C=C1CN(c2c(F)cc3c(=O)c(C(=O)O)cn([C@@H]4C[C@@H]4F)c3c2OC)C[C@@]1(C)N [Example 15, 7-[(3S)-3-Amino-3-methyl-4-methylenepyrrolidine-1-yl]-6-fluoro-1-[(1R,2S)-2-fluorocyclopropyl]-8-methoxy-1,4-dihydro-4-oxoquinoline-3-carboxylic acid]
- MIC [1]: 0.78 µg/mL (≈ 1.92 µM)
- MIC [2]: 0.1 µg/mL (≈ 0.247 µM)
- melting point: 100 to 102 °C
- MIC [3]: 0.2 µg/mL (≈ 0.493 µM)
- MIC [4]: 0.1 µg/mL (≈ 0.247 µM)
- MIC [5]: 0.39 µg/mL (≈ 0.962 µM)
- MIC [6]: 0.05 µg/mL (≈ 0.123 µM)
- MIC [7]: 0.2 µg/mL (≈ 0.493 µM)
- MIC [8]: 0.2 µg/mL (≈ 0.493 µM)
- MIC [9]: 0.012 µg/mL (≈ 0.0296 µM)
- MIC [10]: 0.025 µg/mL (≈ 0.0617 µM)

SMILES: O=C(O)c1cn(C2CC2)c2cc(N3CCNCC3)c(F)cc2c1=O [CPFX, ciprofloxacin, reference compound]
- MIC [1]: > 6.25 µg/mL
- MIC [2]: 0.2 µg/mL (≈ 0.604 µM)
- MIC [3]: 0.78 µg/mL (≈ 2.35 µM)
- MIC [4]: 0.39 µg/mL (≈ 1.18 µM)
- MIC [5]: 0.05 µg/mL (≈ 0.151 µM)
- MIC [6]: 0.1 µg/mL (≈ 0.302 µM)
- MIC [7]: 0.025 µg/mL (≈ 0.0754 µM)
- MIC [8]: 0.025 µg/mL (≈ 0.0754 µM)
- MIC [9]: ≤ 0.003 µg/mL
- number of dead animals ([12]; (with BPAA 400 mg/kg oral, 30 minutes before)): 6/6**^## (6/6**^##)
- number of dead animals ([12]; (without BPAA)): 0/6 (0/6)
- MIC [10]: ≤ 0.003 µg/mL

SMILES: COc1c(N2C[C@H](CF)[C@](C)(N)C2)c(F)cc2c(=O)c(C(=O)O)cn(C3CC3)c12 [Example 21, 7-[(3S,4S)-3-Amino-4-fluoromethyl-3-methylpyrrolidin-1-yl]-1-cyclopropyl-6-fluoro-8-methoxy-1,4-dihydro-4-oxoquinoline-3-carboxylic acid]
- MIC [1]: 0.78 µg/mL (≈ 1.91 µM)
- MIC [2]: 0.1 µg/mL (≈ 0.245 µM)
- melting point: 226 to 229 °C
- MIC [3]: 0.2 µg/mL (≈ 0.491 µM)
- MIC [4]: 0.1 µg/mL (≈ 0.245 µM)
- MIC [5]: 0.78 µg/mL (≈ 1.91 µM)
- MIC [6]: 0.025 µg/mL (≈ 0.0614 µM)
- MIC [7]: 0.2 µg/mL (≈ 0.491 µM)
- MIC [8]: 0.2 µg/mL (≈ 0.491 µM)
- MIC [9]: 0.012 µg/mL (≈ 0.0295 µM)
- MIC [10]: 0.05 µg/mL (≈ 0.123 µM)

SMILES: Cc1c(N2C[C@H](CF)[C@](C)(N)C2)c(F)cc2c(=O)c(C(=O)O)cn([C@@H]3C[C@@H]3F)c12 [Example 22, 7-[(3S,4S)-3-Amino-4-fluoromethyl-3-methylpyrrolidin-1-yl]-6-fluoro-1-[(1R,2S)-2-fluoro-1-cyclopropyl]-8-methyl-1,4-dihydro-4-oxoquinoline-3-carboxylic acid]
- MIC [1]: 0.78 µg/mL (≈ 1.91 µM)
- MIC [2]: 0.05 µg/mL (≈ 0.122 µM)
- melting point: 135 to 137 °C
- MIC [3]: 0.2 µg/mL (≈ 0.489 µM)
- inhibition at 30 µM [11]: -1.3 ± 10.1%
- inhibition at 100 µM [11]: -0.6 ± 7.9%
- inhibition at 300 µM [11]: 21.5 ± 6.9%
- MIC [4]: 0.1 µg/mL (≈ 0.244 µM)
- MIC [5]: 0.39 µg/mL (≈ 0.953 µM)
- MIC [6]: 0.025 µg/mL (≈ 0.0611 µM)
- MIC [7]: 0.1 µg/mL (≈ 0.244 µM)
- MIC [8]: 0.1 µg/mL (≈ 0.244 µM)
- MIC [9]: 0.012 µg/mL (≈ 0.0293 µM)
- MIC [10]: 0.012 µg/mL (≈ 0.0293 µM)

SMILES: C[C@H]1COc2c(N3CC(C)(N)C4(CC4)C3)c(F)cc3c(=O)c(C(=O)O)cn1c23 (stereo partly drawn) [Example 16, (3S)-10-(7-Amino-7-methyl-5-azaspiro[2.4]heptane-5-yl)-9-fluoro-2,3-dihydro-3-methyl-7-oxo-7H-pyrido[1,2,3-de][1,4]benzoxazine-6-carboxylic acid]
- MIC [1]: 3.13 µg/mL (≈ 8.08 µM)
- MIC [2]: 0.1 µg/mL (≈ 0.258 µM)
- melting point: 268 to 270 °C
- MIC [3]: 0.39 µg/mL (≈ 1.01 µM)
- MIC [4]: 0.2 µg/mL (≈ 0.516 µM)
- MIC [5]: 0.1 µg/mL (≈ 0.258 µM)
- MIC [6]: 0.025 µg/mL (≈ 0.0645 µM)
- MIC [7]: 0.1 µg/mL (≈ 0.258 µM)
- MIC [8]: 0.05 µg/mL (≈ 0.129 µM)
- MIC [9]: 0.012 µg/mL (≈ 0.031 µM)
- MIC [10]: 0.006 µg/mL (≈ 0.0155 µM)
